Entries after “also recorded” stand apart in the source; their conditions may differ.
Experiment: Peptide partition from solution to membrane followed by tryptophan intrinsic fluorescence titration
Type: physicochemical
Conditions: SUVs DOPC/DOPE/DOPG/Chol 4:3:2:1; for partition coefficient KX: Trp fluorescence titration (exc. 280 nm, ratio 340/380 nm), 20 mM HEPES, 150 mM NaCl, pH 7.4, 25 °C; for ability to interact with / partition into membranes: tryptophan fluorescence and CD; for ΔG (free energy of membrane partition): ΔG=−RTln(KX), pH 7.4, 25 °C
Procedure: Small unilamellar vesicles (SUVs) were prepared at a lipid concentration of 10 mM from POPC and POPG at a molar ratio of 10:0 or 8:2 or from DOPC, DOPE, DOPG, Chol at molar ratio 10:0:0:0, 8:0:2:0, 7:3:0:0, 7:0:0:3, 6:3:0:1, and 4:3:2:1 in buffer A, as previously described. Briefly, SUVs were prepared by reverse-phase evaporation and passed through polycarbonate filters 0.8-, 0.4-, and 0.2-μm (Merck Millipore, Darmstadt, Germany). Vesicles were sonicated using a sonicator tip and their hydrodynamic diameters, dispersity, and charge were checked by dynamic light scattering (DLS) and electrophoretic mobility using a NanoZS instrument (Malvern Instruments, Orsay, France).
Fluorescence titrations were performed with a FP-8200 Jasco spectrofluorimeter, equipped with a Peltier-thermostated ETC-272T (25 °C). A bandwidth of 5 nm was used for both excitation and emission beams. Fluorescence experiments were carried out in a 109.004F-QS cuvette (Hellma, France) with constant stirring. Fluorescence emission was recorded between 300 and 400 nm at a scan rate of 200 nm/min, with an excitation wavelength of 280 nm. Fluorescence emission spectra were corrected for SUV light scattering. Maximum emission wavelength (λmax) and fluorescence intensity ratio at 330 nm over 370 nm (P454-derived peptides) or at 340 nm over 380 nm (CyaA-derived peptides) were used to report peptide-membrane interaction and to measure the partition coefficient KX.
The partition coefficient KX is defined as the ratio of protein concentrations in the lipid and in buffer phases. It is expressed as follows:
KX=PL/PW·[W]/[L] , providing PW/PL=[W]/KX[L] , where PW is the concentration of peptide in solution, PL the concentration of peptides partitioning into lipid membrane, [W] represents the concentration of water, and [L] the lipid concentration.
The fraction of peptide partitioned into the membrane phase, fPL, is equal to: fPL=PL/PT=PL/PL+PW=1/(PW/PL)+1=1/([W]/KX[L])+1
The partition coefficient is related to the apparent dissociation constant as follows: KX * KD = [W] with KD * PL = PW * [L]. The equation fPL is fitted to the experimental data using the KaleidaGraph software, providing KX. The free energy corresponding to the transfer of the peptide from the aqueous phase to the lipid phase is given by the equation ΔG=−RTln(KX) , where ΔG is the free energy in kcal/mol, R the gas constant (R = 1.98 × 10^−3 kcal/mol/K), and T the temperature in Kelvin.

Row | Substance | partition coefficient KX | ability to interact with / partition into membranes | ΔG (free energy of membrane partition) [kcal/mol]
1 | Ac-IIEKLANDYARKIDELGW-NH2 [Peptide P717] | 60 000 | able to interact with membranes | -6.5
2 | Ac-IPAAVLDGIKAVAKEKNW-NH2 [Peptide P19] | – | no detectable change of tryptophan fluorescence or CD signature; also recorded: do not | –
3 | Ac-LVQQSHYADQLDKLAQESSAYGW-NH2 [Peptide P626] | – | no detectable change of tryptophan fluorescence or CD signature; also recorded: do not | –
4 | Ac-QEAASLSAAVFGLGEASSAVAETVSGFFRGW-NH2 [Peptide P495] | 130 000 | able to interact with membranes | -6.9
5 | Ac-TTEISKSALELAAITGNW-NH2 [Peptide P777] | – | no detectable change of tryptophan fluorescence or CD signature; also recorded: do not | –

Reference: article PMC5705984, “Membrane-Active Properties of an Amphitropic Peptide from the CyaA Toxin Translocation Region” (Toxins, 2017)
